Measured values reported in PubChem BioAssay (NCI).
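48-hour exposure; five concentrations; linearly interpolated endpoints. TGI marks complete inhibition of growth.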

What was measured:
Assay in all cases: NCI-60 cell line screen, 48 h
DMS 114 small cell lung = system: DMS 114 small cell lung
HOP-18 NSCLC = system: HOP-18 NSCLC
HOP-92 NSCLC = system: HOP-92 NSCLC
LOX IMVI melanoma = system: LOX IMVI melanoma
LXFL 529 NSCLC = system: LXFL 529 NSCLC
M19-MEL melanoma = system: M19-MEL melanoma
SNB-19 CNS = system: SNB-19 CNS
KM20L2 colon = system: KM20L2 colon

Row | SMILES | TGI (DMS 114 small cell lung) | TGI (HOP-18 NSCLC) | TGI (HOP-92 NSCLC) | TGI (LOX IMVI melanoma) | TGI (LXFL 529 NSCLC) | TGI (M19-MEL melanoma) | TGI (SNB-19 CNS) | TGI (KM20L2 colon)
1 | NNC(=O)/C(=C/c1cccc([N+](=O)[O-])c1)NC(=O)c1ccccc1 | > 100 µM | > 100 µM | > 100 µM | > 100 µM | > 100 µM | > 100 µM | > 100 µM | 
2 | O/N=C1/C(=C/c2ccc(F)cc2)CCCC1C(NO)c1ccc(F)cc1 (stereo not drawn) | > 100 µM | 87.3 µM |  |  | > 100 µM | > 100 µM | > 100 µM | 72.2 µM
3 | CCCCCCC(=O)C/C(CCC(=O)N(Cc1ccccc1)Cc1ccccc1)=N\Nc1ccc([N+](=O)[O-])cc1[N+](=O)[O-] | 40.6 µM | > 100 µM | > 100 µM | > 100 µM | > 100 µM | > 100 µM | > 100 µM | > 100 µM
4 | COc1cc(C2C(Cl)C(=O)N2n2cnc3ccccc3c2=O)cc(OC)c1OC (stereo not drawn) | > 100 µM | > 100 µM |  | > 100 µM | > 100 µM | > 100 µM | > 100 µM | > 100 µM
5 | CCOP(=O)(OCC)C1C(=O)O[C@H]2CCCC[C@@H]12 (stereo partly drawn) | > 100 µM | > 100 µM |  | > 100 µM | > 100 µM | > 100 µM | > 100 µM | > 100 µM
6 | CCCCN(CCCC)C(=O)C(=O)CC(=O)c1ccc(Br)cc1 | > 100 µM | > 100 µM | > 100 µM | > 100 µM | > 100 µM | > 100 µM | > 100 µM | > 100 µM
7 | CC1=C(C(=O)Nc2ccccc2)C(c2ccc3c(c2)OCO3)C(C(=O)Nc2ccccc2)=C(C)N1 | > 100 µM | > 100 µM |  | 76.5 µM | > 100 µM | > 100 µM | > 100 µM | 
8 | CC1=COC(=O)c2ccccc2N1 | > 100 µM |  | > 100 µM | > 100 µM | > 100 µM | > 100 µM | > 100 µM | > 100 µM
9 | CCOC(=O)Cc1c(Cc2[nH]c(C(=O)OCc3ccccc3)c(CC(=O)OCC)c2CC(=O)OCC)[nH]c(C(=O)OCc2ccccc2)c1CC(=O)OCC | > 100 µM | > 100 µM | > 100 µM |  | > 100 µM | > 100 µM | > 100 µM | > 100 µM
10 | O=C1C2=C(c3ccccc31)C(c1ccc(Cl)cc1)N1C(=O)CCSC1=N2 (stereo not drawn) | > 100 µM |  | > 100 µM |  | > 100 µM | > 100 µM | > 100 µM | > 100 µM
11 | Cc1c(NC(=O)C(=O)N=NC(=O)c2ccncc2)c(O)c2ccccc2c1O | 15.3 µM | 22.3 µM | 33.5 µM | 19.1 µM | 28.2 µM | 3.23 µM | 48.3 µM | 70.3 µM
12 | O=C(Cc1ccccc1)NN1C(=O)C(Cl)C1c1cccc(O)c1 (stereo not drawn) | 29.4 µM | 36.5 µM |  | 27.9 µM | 22.8 µM | 35.8 µM | > 100 µM | 32.2 µM
13 | CC(Cl)(/C=C/Cl)C(Cl)/C=C/C(Cl)(CCl)CBr (stereo not drawn) | 5.32 µM | 11.6 µM | 4.01 µM | 4.5 µM | 2.5 µM | 13.5 µM | 27.3 µM | 23.9 µM
14 | Cc1cc(Br)cc(C)c1NC(=O)C(=O)CC(=O)c1sc(-n2nc(-c3ccccc3)cc2-c2ccccc2)nc1C | > 100 µM | > 100 µM | > 100 µM | > 100 µM | > 100 µM | > 100 µM | > 100 µM | > 100 µM
15 | COc1ccc(/C=C2/CCCC/C2=N/O)cc1 | > 100 µM | > 100 µM | > 100 µM | > 100 µM | > 100 µM | > 100 µM | > 100 µM | > 100 µM
16 | Cn1nc(-c2ccccc2NC(=O)C(F)(F)F)c(=O)n(C)c1=S | 29.5 µM |  | 50.7 µM | > 100 µM | > 100 µM | 48.7 µM | > 100 µM | 
17 | CNC(=O)OCc1nc(SC(C)C)n(C)c1COC(=O)NC | > 100 µM | > 100 µM | > 100 µM | > 100 µM | > 100 µM | > 100 µM | > 100 µM | > 100 µM
18 | CCOC(=O)/C(C1=N[C@H](C(=O)OCC)CS1)=C(\C)O |  | > 100 µM |  | > 100 µM | > 100 µM | > 100 µM | > 100 µM | > 100 µM
19 | COc1ccc(-c2oc3cc(O)c(OC)c(O)c3c(=O)c2OC2OC(CO)C(O)C(O)C2O)cc1 (stereo not drawn) | > 100 µM | > 100 µM | > 100 µM | > 100 µM | > 100 µM | > 100 µM | > 100 µM | > 100 µM
20 | Cn1ncc2cc3c(Nc4ccc(Cl)cc4)cccc3nc21 | 28.9 µM |  | 47.7 µM | 41.4 µM | 42.7 µM | 43.9 µM | > 100 µM | 34.8 µM
